One assay has as its target Caspase 7 (Homo sapiens, UniProt P55210). Kind of assay: Pharmacological profile: enzyme inhibition. Format: biochemical. The source says: (§1) Table 1 Pharmacological profile of SM-345431 (part 1) | column: IC50 (μm)
The target in assay [1] is Protein Tyrosine Phosphatase, T-Cell (Homo sapiens, UniProt P17706). Kind of assay: Pharmacological profile: enzyme inhibition. Format: biochemical.
Source text: as §1

Assay [2] deals with Sphingomyelinase, Neutral (N-SMase). Briefly: Pharmacological profile: enzyme inhibition. The class given is biochemical.
Source text: as §1

Assay [3] addresses Matrix Metalloproteinase-7 (MMP-7) (Homo sapiens, UniProt P09237). Kind of assay: Pharmacological profile: enzyme inhibition. Format: biochemical.
Source text: as §1

For a further assay, the target named is Caspase 6 (Homo sapiens, UniProt P55212). Briefly: Pharmacological profile: enzyme inhibition. The class given is biochemical.
Sequence of Caspase 6 (P55212 24-179 limits assumed, species assumed): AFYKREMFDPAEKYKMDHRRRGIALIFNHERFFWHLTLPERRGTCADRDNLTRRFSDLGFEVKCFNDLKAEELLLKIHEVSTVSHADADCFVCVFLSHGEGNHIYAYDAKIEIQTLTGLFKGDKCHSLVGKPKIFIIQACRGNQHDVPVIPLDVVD
Sequence of Caspase 6 (P55212 194-293 limits assumed, species assumed): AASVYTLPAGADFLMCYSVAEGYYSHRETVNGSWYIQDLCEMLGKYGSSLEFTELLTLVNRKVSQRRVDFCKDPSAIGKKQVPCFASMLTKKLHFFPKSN
Source text: as §1

For the next assay, the target named is Caspase 8 (Homo sapiens, UniProt Q14790). Kind of assay: Pharmacological profile: enzyme inhibition. The class given is biochemical.
Sequence of Caspase 8 (Q14790 217-374 limits assumed, species assumed): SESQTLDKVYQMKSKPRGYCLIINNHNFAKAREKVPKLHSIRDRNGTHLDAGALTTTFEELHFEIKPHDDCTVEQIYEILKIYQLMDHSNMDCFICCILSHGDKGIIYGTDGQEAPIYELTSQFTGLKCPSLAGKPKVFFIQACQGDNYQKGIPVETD
Sequence of Caspase 8 (Q14790 385-479 limits assumed, species assumed): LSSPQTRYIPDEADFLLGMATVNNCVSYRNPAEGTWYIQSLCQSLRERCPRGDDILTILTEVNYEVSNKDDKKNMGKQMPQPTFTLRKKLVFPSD
Source text: as §1

Assay [4] has as its target Matrix Metalloproteinase-3 (MMP-3) (Homo sapiens, UniProt P08254). Briefly: Pharmacological profile: enzyme inhibition. The class given is biochemical.
Source text: as §1

Assay [5] deals with Protein Tyrosine Phosphatase, CD45 (Homo sapiens, UniProt P08575). Briefly: Pharmacological profile: enzyme inhibition. Format: biochemical.
Source text: as §1

The target in the next assay is Caspase 1 (Homo sapiens, UniProt P29466). Kind of assay: Pharmacological profile: enzyme inhibition. Format: biochemical.
Sequence of Caspase 1 (P29466 120-297 limits assumed, species assumed): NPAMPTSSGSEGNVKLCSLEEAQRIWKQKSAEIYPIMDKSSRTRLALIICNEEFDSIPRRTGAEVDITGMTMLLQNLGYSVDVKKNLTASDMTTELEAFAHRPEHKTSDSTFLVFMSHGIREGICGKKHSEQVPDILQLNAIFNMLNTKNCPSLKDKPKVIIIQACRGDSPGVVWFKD
Sequence of Caspase 1 (P29466 317-404 limits assumed, species assumed): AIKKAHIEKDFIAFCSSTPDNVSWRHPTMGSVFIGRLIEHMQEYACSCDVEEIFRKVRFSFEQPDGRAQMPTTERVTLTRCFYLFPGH
Source text: as §1

The next assay concerns the target Caspase 3 (Homo sapiens, UniProt P42574). Kind of assay: Pharmacological profile: enzyme inhibition. Format: biochemical.
Source text: as §1

Assay [6] concerns the target Matrix Metalloproteinase-2 (MMP-2) (Homo sapiens, UniProt P08253). Kind of assay: Pharmacological profile: enzyme inhibition. Format: biochemical.
Source text: as §1

Assay [7] has as its target Matrix Metalloproteinase-1 (MMP-1) (Homo sapiens, UniProt P03956). Briefly: Pharmacological profile: enzyme inhibition. The class given is biochemical.
Source text: as §1

The target in assay [8] is Protein Tyrosine Phosphatase, PTP1C (Homo sapiens, UniProt P29350). Briefly: Pharmacological profile: enzyme inhibition. The class given is biochemical.
Sequence of Protein Tyrosine Phosphatase, PTP1C (P29350 whole entry): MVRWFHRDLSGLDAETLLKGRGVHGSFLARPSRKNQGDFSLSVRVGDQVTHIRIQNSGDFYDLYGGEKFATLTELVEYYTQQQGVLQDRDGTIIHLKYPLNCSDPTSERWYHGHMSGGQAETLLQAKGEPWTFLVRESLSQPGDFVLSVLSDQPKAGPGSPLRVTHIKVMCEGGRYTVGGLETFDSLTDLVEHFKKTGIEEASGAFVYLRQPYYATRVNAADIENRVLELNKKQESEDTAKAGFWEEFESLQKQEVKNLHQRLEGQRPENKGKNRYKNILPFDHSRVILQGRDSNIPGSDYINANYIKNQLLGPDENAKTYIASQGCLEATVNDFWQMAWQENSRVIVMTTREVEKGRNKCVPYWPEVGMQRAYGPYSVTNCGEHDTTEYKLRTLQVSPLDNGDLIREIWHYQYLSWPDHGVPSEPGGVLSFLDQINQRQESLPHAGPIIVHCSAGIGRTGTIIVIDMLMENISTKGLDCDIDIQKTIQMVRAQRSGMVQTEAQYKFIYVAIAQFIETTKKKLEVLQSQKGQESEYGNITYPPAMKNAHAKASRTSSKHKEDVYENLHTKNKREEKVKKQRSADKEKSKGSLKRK
Source text: as §1

The target in assay [9] is Protein Tyrosine Phosphatase, PTP1B (Homo sapiens, UniProt P18031). Briefly: Pharmacological profile: enzyme inhibition. Format: biochemical.
Sequence of Protein Tyrosine Phosphatase, PTP1B (P18031 whole entry): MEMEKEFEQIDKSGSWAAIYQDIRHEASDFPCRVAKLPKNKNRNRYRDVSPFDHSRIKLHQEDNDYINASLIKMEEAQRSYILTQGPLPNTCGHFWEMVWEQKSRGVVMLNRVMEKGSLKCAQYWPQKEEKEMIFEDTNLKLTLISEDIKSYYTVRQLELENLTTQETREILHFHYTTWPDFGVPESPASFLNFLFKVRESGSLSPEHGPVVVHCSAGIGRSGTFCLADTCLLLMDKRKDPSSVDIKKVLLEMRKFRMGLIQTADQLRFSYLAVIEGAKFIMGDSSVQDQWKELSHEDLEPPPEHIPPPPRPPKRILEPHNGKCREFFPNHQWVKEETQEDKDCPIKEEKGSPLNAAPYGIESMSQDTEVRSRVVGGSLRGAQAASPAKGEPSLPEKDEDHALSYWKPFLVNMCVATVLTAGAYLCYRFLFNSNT
Source text: as §1

Assay [10] has as its target Matrix Metalloproteinase-9 (MMP-9) (Homo sapiens, UniProt P14780). Kind of assay: Pharmacological profile: enzyme inhibition. The class given is biochemical.
Source text: as §1

The next assay has as its target Chemokine CCR2B (Homo sapiens, UniProt P41597). Briefly: Pharmacological profile: receptor binding assay.
Source text: as §1

A further assay has as its target Chemokine CCR4 (Homo sapiens, UniProt P51679). Kind of assay: Pharmacological profile: receptor binding assay.
Source text: as §1

A further assay addresses Chemokine CCR5 (Homo sapiens, UniProt P51681). Kind of assay: Pharmacological profile: receptor binding assay.
Source text: as §1

The target in assay [11] is Tumor Necrosis Factor (TNF), Non-selective. Kind of assay: Pharmacological profile: receptor binding assay.
Source text: as §1

A further assay concerns the target Glucocorticoid (Homo sapiens, UniProt P04150). Briefly: Pharmacological profile: receptor binding assay.
Source text: as §1

In the next assay the test system is SCT adult rats. Briefly: Lumbar spinal circuitry after SCT (c-Fos and synapsin-1 immunostaining). Format: in vivo, rat. Here is the method: Rats were randomly divided into the following three experimental groups: 1) untrained + placebo, 2) untrained + SM-345431 and 3) trained + SM-345431. SCT was performed, and SM-345431 or placebo was administered at the lesion site via the newly developed DDS, which is described in detail below. Starting 1 week post-injury, treadmill training commenced with a BSS. Kinematic tests were performed monthly for 3 months after SCT using a rodent robotic device (Rodent robot 3000, Robomedica Inc.) that primarily assessed the performance of plantar stepping on a treadmill. Treadmill training was continued throughout the experimental period.
A total of 53 adult female Sprague-Dawley rats (200-250 g, 10-12 weeks old) were used in this study (3 rats died during the experimental period and were excluded from the statistical analysis). All procedures were approved by the experimental animal care committee of Keio University, School of Medicine and Murayama Medical Center (approval #12-8). All rats were anesthetized with an intraperitoneal injection of ketamine (100 mg/kg)/xylazine (10 mg/kg). The spinal cord at the level of the T10 lamina was exposed by T10 laminectomy, and the dorsal dura mater was opened. The exposed spinal cord was cut along the inner edge of the vertebra with a sharp micro-scissor. Two more cuts were made at the gap of the transected spinal cord by a scalpel to ensure total transection. SM-345431 or placebo was administered to the transected site via the newly developed DDS as described in detail below (Figure 1G-I). After these procedures, the back muscles and skin were closed. Rats were kept warm in an incubator (37°C) after surgery. To prevent dehydration in the rats, 10 ml of saline was subcutaneously injected daily until day 7. Ampicillin (0.4 g/kg) was also injected intramuscularly daily to prevent infection until day 7. The bladder was evacuated manually until autonomous emptying of the bladder was achieved. The re-transection procedure was performed at the same level as the primary SCT (15 rats total; 5 rats from each group). Kinematic data were recorded using similar procedures prior to re-transection surgery (on the same day) and on the day following re-transection surgery. For CST tracing, 10% BDA was injected as follows. Nine weeks after SM-345431 or placebo administration, BDA (10000 MW, Molecular Probes) was injected into six different sites of the sensorimotor cortices of the rats under general anesthesia (site 1: 2.0 mm lateral, 0 mm to bregma; site 2: 2.0 mm lateral, 2 mm posterior to bregma; site 3: 2.0 mm lateral, 4 mm posterior to bregma; site 4: 4 mm lateral, 0 mm to bregma; site 5: 4 mm lateral, 2 mm posterior to bregma and site 6: 4 mm lateral, 4 mm posterior to bregma). […]

Sequence of Matrix Metalloproteinase-7 (MMP-7) (P09237 95-267, species assumed): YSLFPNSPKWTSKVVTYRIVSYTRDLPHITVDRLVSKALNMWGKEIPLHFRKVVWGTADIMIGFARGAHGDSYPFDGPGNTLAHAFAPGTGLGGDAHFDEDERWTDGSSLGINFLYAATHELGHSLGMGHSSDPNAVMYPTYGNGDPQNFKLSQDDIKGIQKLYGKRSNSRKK
Sequence of Chemokine CCR2B (P41597 1-360 isoform P41597-2): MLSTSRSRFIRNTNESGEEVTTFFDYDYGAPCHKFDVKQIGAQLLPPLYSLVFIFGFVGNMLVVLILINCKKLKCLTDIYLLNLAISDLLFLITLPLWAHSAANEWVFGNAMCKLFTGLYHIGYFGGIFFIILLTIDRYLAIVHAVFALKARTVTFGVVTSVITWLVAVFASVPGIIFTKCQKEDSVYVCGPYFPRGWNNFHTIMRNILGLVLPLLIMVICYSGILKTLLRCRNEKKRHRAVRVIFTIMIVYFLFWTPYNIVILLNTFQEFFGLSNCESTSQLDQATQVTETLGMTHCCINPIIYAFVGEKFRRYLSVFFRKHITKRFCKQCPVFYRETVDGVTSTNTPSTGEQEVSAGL
Sequence of Glucocorticoid (P04150 whole entry): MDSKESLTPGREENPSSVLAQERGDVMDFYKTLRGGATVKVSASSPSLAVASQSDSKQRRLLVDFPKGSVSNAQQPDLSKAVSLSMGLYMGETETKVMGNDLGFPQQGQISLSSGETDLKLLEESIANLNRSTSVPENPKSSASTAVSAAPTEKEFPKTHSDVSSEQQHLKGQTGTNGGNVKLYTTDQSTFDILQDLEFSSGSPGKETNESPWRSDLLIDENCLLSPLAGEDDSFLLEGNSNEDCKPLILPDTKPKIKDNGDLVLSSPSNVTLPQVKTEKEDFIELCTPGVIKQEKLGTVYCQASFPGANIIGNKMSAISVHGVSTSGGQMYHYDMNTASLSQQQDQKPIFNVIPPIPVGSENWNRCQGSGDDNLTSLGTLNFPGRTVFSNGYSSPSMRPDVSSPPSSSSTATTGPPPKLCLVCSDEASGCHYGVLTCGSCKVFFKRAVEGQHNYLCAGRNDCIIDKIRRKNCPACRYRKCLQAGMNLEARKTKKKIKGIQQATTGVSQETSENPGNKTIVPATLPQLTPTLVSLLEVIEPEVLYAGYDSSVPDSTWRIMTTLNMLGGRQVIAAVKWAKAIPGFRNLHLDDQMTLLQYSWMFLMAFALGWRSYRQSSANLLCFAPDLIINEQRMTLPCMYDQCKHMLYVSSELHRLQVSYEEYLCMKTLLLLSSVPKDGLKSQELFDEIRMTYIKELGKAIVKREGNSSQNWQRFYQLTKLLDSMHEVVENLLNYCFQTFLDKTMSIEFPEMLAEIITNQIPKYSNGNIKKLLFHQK
Sequence of Matrix Metalloproteinase-2 (MMP-2) (P08253 110-660, species assumed): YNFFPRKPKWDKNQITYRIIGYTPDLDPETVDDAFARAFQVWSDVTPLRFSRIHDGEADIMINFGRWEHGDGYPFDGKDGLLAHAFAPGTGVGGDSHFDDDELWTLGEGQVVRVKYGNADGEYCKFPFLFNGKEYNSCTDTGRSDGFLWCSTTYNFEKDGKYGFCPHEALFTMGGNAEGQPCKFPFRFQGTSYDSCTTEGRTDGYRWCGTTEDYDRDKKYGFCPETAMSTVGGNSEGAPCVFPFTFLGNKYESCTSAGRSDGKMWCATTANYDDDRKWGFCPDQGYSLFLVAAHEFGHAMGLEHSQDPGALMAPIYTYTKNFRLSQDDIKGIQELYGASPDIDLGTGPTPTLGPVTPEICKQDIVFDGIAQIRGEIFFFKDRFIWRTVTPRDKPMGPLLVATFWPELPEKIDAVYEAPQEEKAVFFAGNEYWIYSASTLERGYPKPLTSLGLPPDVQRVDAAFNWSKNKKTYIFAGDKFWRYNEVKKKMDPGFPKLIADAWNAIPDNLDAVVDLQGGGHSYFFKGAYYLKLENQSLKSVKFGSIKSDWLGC
Sequence of Matrix Metalloproteinase-3 (MMP-3) (P08254 100-477, species assumed): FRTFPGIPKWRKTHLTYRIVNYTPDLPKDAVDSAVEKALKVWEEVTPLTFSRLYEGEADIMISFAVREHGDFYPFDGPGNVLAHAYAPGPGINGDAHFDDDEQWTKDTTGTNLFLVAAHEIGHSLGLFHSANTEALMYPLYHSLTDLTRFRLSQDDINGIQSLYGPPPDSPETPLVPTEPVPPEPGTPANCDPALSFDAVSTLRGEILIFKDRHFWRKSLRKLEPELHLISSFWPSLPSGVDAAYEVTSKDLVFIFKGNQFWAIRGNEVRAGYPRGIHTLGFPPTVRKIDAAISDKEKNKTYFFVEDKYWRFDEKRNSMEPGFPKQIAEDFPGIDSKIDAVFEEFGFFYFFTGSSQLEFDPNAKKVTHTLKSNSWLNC
Sequence of Caspase 3 (P42574 29-175 limits assumed, species assumed): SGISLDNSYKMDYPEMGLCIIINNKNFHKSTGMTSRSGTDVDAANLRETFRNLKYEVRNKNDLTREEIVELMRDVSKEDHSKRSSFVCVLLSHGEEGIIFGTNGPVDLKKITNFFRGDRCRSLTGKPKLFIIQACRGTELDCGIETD
Sequence of Caspase 3 (P42574 176-277 limits assumed, species assumed): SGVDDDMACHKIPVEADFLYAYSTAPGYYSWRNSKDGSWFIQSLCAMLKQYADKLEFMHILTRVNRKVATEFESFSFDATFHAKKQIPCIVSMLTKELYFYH
Sequence of Caspase 7 (P55210 24-198 limits assumed, species assumed): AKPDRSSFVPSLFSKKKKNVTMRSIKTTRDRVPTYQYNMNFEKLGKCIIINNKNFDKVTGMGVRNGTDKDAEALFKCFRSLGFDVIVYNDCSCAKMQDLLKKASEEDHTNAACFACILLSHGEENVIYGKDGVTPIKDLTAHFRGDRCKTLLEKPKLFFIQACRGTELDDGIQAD
Sequence of Caspase 7 (P55210 207-303 limits assumed, species assumed): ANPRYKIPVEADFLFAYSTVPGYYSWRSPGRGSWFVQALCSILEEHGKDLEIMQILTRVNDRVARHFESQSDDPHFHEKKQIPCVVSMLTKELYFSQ

Consider `CC(=O)c1cc2c(=O)c3c(C(=O)O)c(O)c(O)cc3oc2c(C(C)=O)c1-c1coc2cc(O)c(O)c(C(=O)O)c2c1=O` [SM-345431, Vinaxanthone], for which the IC50 on Caspase 7 is more than 10 µM; in assay [1] it was more than 10 µM; in assay [2], more than 10 µM; in [3], 10 µM; on Caspase 6, more than 10 µM; on Caspase 8, more than 10 µM. The IC50 (in assay [4]; in assay [5]; against Caspase 1; against Caspase 3; in assay [6]; in assay [7]) was more than 10 µM each time. The IC50 (in assay [8]; in assay [9]; in assay [10]; at Chemokine CCR2B; on Chemokine CCR4; on Chemokine CCR5) was more than 10 µM throughout. Also, the IC50 (in assay [11]; on Glucocorticoid) was more than 10 µM throughout. Also, in the assay on SCT adult rats (SM-345431 alone, L1-L5 levels, not statistically significant), the “number of c-Fos + nuclei versus control SCI rats” value is reported as “tended to be lower”. Further, in the assay with SCT adult rats (SM-345431 alone, P > 0.05), the “synapsin-1 expression at the lumbar enlargement versus control SCT group” value was “No statistically significant difference”. In addition, the “number of c-Fos + nuclei versus control SCT rats” value in the assay on SCT adult rats (SM-345431 combined with treadmill training, L4 and L5 levels, P < 0.01) is recorded as “statistically significant decrease”. Moreover, the “synapsin-1 expression at the lumbar enlargement” value with SCT adult rats (SM-345431 combined with treadmill training, P < 0.01 vs control SCT, P < 0.05 vs SM-345431 group) is on record as “statistically significant increase”.

As a reminder, the IC50 is the concentration that inhibits the measured activity by half. Low values mean greater potency, high ones weaker potency.

The record behind these values is publication PMC4008261, “Rewiring of regenerated axons by combining treadmill training with semaphorin3A inhibition” (Molecular Brain, 2014).
